Experiments:
[1] = target: T1, Human adenosine A2B receptor (Homo sapiens, UniProt P29275); experiment: Inhibition of NECA-stimulated cAMP production in A2B receptor expressed cells; format: cell-based; settings: CHOK1 cells over-expressing human A2B; 30 nM NECA; in the presence of Ro-20-1724; cAMP enzyme immunoassay; read-out: 50% inhibitory concentration (IC50) for NECA-stimulated cAMP production
T1 construct: expressed in transfected cells; host or cells: CHOK1 cells
T1 sequence (P29275 1-332): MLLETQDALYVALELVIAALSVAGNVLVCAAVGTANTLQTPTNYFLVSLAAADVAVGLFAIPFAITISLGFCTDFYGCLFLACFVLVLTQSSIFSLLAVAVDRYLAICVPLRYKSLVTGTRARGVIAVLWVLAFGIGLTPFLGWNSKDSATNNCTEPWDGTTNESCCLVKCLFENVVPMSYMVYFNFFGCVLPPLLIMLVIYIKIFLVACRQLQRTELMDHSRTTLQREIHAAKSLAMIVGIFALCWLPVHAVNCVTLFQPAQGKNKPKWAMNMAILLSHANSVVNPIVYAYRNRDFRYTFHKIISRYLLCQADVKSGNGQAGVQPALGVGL
Protocol: Human adenosine A2B receptor was over-expressed in CHOK1 cells. The cells were uniformly placed on a 24-well plate at the rate of 1.5×10^5 cells/well, incubated for one night and then used for the experiments. The inhibition rate of the compound of the present invention for the amount of cAMP produced by stimulation of 30 nM of 5′-N-ethylcarboxyamideadenosine (NECA; manufactured by Sigma corporation) was evaluated as affinity of the compound of the present invention to the A2B receptor. Thus, after washing adherent cells with 2 mL/well of a Krebs-Ringer buffer (containing 0.1 % BSA; pH7.4) twice, a pre-incubation was carried out at 0.5 mL/well for 30 minutes. After that, […] of a mixed solution containing NECA and the compound of the present invention were added in the presence of Ro-20-1724 (manufactured by RBI corporation) which is a phosphodiesterase inhibitor. 15 minutes after pre-incubation, the reaction was stopped by adding 0.1N HCl to the reaction solution. Measurement of cAMP was carried out using a cAMP enzyme immunoassay kit manufactured by Amersham corporation. Calculation of the inhibition rate of the compound of the present invention to the NECA-stimulated cAMP production was carried out by the following expression. […]

[2] = target: T2, Human adenosine A1 receptor (Homo sapiens, UniProt P30542); experiment: Adenosine A1 receptor binding experiment (3H-CCPA displacement, CHOK1 membrane specimen); settings: calculated from IC50 by Cheng-Prusoff's expression; 3H-CCPA binding, membranes of CHOK1 cells over-expressing human A1, 30° C., 120 minutes; read-out: inhibition constant (Ki value)
T2 construct: expressed in transfected cells; host or cells: CHOK1 cells (membrane specimen)
T2 sequence (P30542 1-326): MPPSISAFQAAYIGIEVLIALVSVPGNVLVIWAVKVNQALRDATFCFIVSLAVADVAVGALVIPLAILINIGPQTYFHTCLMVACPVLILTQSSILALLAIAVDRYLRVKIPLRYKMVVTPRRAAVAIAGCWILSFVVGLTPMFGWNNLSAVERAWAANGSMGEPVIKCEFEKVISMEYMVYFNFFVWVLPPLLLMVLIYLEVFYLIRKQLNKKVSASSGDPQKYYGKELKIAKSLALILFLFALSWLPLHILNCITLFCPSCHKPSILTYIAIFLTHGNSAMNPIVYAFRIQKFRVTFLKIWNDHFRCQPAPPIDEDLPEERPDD
Protocol: Human adenosine A1 receptor cDNA was subjected to an over-expression in CHOK1 cells and its membrane specimen was suspended in a 20 mM HEPES buffer (containing 10 mM MgCl2 and 100 mM NaCl; pH 7.4) to make the protein concentration of 66.7 μg/mL. To 0.45 mL of this membrane specimen suspension were added 0.025 mL of tritium-labeled 60 nM chlorocyclopentyl adenosine (^3H-CCPA, manufactured by NEN corporation) and 0.025 mL of a solution of the compound of the present invention. The mixture was allowed to stand at 30° C. for 120 minutes, subjected to a quick suction on a glass fiber filter (GF/B; manufactured by Whatman) and immediately washed with 5 mL of water-cooled 50 mM Tris-HCl buffer twice. After that, the glass fiber filter was transferred to a vial bottle, a scintillator was added, and the radioactivity on the filter was measured by a liquid scintillation counter. […]
At this point, total binding amount is a ^3H-CCPA binding radioactivity in the absence of the compound of the present invention, non-specific binding amount is a ^3H -CCPA binding radioactivity in the presence of 100 μM of RPIA ([R]-[1-methyl-2-phenylethyl]adenosine), and binding amount in the presence of the compound of the present invention is a ^3H-CCPA binding radioactivity in the presence of the compound of the present invention of various concentrations.

IC50 [1]: 72.7 nM
Ki [2]: 157 nM
Structure (SMILES): Cn1cc(-c2c(O)nc(N)nc2-c2ccco2)ccc1=O [the compound of the present invention, 5-[2-amino-4-(2-furyl)-6-hydroxypyrimidin-5-yl]-1-methylpyridin-2(1H)-one]

Reference: patent US20080009623A1, “Pyrimidine compounds” (Eisai R&D Management Co., Ltd., priority 2006, published 2008)
